Reference: paper PMC8860572 (Nucleic Acids Research, 2022)
Entries after “also recorded” stand apart in the source; their conditions may differ. Like-named read-outs stand apart in the source and are kept apart here.

How the values were obtained:
[1] = target: SARS-CoV-2 nsp14–nsp10 complex (nuclease activity) (Severe acute respiratory syndrome coronavirus 2, UniProt P0DTD1); assay: biochemical; conditions: for inhibition of substrate digestion in gel-based assay: 100 nM nsp14–nsp10, compound up to 100 μM; for IC50 / IC50 value: 100 nM nsp14–nsp10, 10 nM 20-mer ssRNA, 37°C 45 min, approximate/preliminary
nsp14–nsp10 = nsp14–nsp10 (Severe acute respiratory syndrome coronavirus 2, UniProt P0DTD1); type: binding, SARS-CoV-2; conditions: for ΔTm: 1 µM nsp14-10; for effect on thermal stability / aggregation of nsp14–nsp10 (words): 3.1-100 µM compound
[2] = target: nsp14–nsp10 co-incubated with nsp8 (Severe acute respiratory syndrome coronavirus 2, UniProt P0DTD1); assay: gel-based nuclease inhibition assay with nsp8 stimulation; type: biochemical, SARS-CoV-2; conditions: 100 nM nsp14-nsp10 and 300 nM nsp8, compound 3-100 μM
[3] = target: guanine N7 methyl transferase (MTase) activity of nsp14–nsp10 (Severe acute respiratory syndrome coronavirus 2, UniProt P0DTD1); assay: HTRF methyltransferase assay; type: biochemical, SARS-CoV-2; conditions: 2.5, 5 and 10 μM compound; 10 nM nsp14-nsp10, 5 μM SAM, 0.14 mM GP3G
[4] = target: SARS-CoV-2 nsp14–nsp10 RNase activity (Severe acute respiratory syndrome coronavirus 2, UniProt P0DTD1); type: biochemical
SARS-CoV-2 = conditions: cited from earlier work
[5] = Supplementary Table 2, in vitro inhibition of nsp14-nsp10 nuclease activity, result in words
[6] = 125 nM (ions) or 250 nM (chelators) nsp14-nsp10, ions 0.05-10 mM, chelators 0.03-1 mM

COc1ccc2c3c(cccc13)C(=O)N(O)C2=O [A-1]
inhibition of substrate digestion in gel-based assay [1]: qualitatively complete inhibition of substrate digestion
ΔTm (nsp14–nsp10; 3.1 µM compound): 0.02 °C
ΔTm (nsp14–nsp10; 6.3 µM compound): 0.31 °C
ΔTm (nsp14–nsp10; 12.5 µM compound): 0.25 °C
ΔTm (nsp14–nsp10; 25 µM compound): 0.17 °C
ΔTm (nsp14–nsp10; 50 µM compound): 0.29 °C
ΔTm (nsp14–nsp10; 100 µM compound): 0.60 °C

COc1cc2c3c(cccc3c1)C(=O)N(O)C2=O [A-2]
IC50 [1]: 20.7 ± 0.5 µM
inhibition of substrate digestion in gel-based assay [1]: qualitatively complete inhibition of substrate digestion
Level of inhibition [1, 5]: Yes
inhibition of nuclease activity in presence of nsp8 [2]: inhibition was still observed, albeit at higher inhibitor concentrations
ΔTm (nsp14–nsp10; 3.1 µM compound): 0.01 °C
ΔTm (nsp14–nsp10; 6.3 µM compound): 0.26 °C
ΔTm (nsp14–nsp10; 12.5 µM compound): 0.22 °C
ΔTm (nsp14–nsp10; 25 µM compound): 0.21 °C
ΔTm (nsp14–nsp10; 50 µM compound): 0.36 °C
MTase inhibition [3]: demonstrated MTase inhibition activity

O=c1[nH]c2ccccc2c(=O)n1O [A-3]
ΔTm (nsp14–nsp10; 3.1 µM compound): -0.10 °C
ΔTm (nsp14–nsp10; 6.3 µM compound): 0.13 °C
ΔTm (nsp14–nsp10; 12.5 µM compound): 0.31 °C
ΔTm (nsp14–nsp10; 25 µM compound): 1.33 °C
ΔTm (nsp14–nsp10; 50 µM compound): 0.36 °C

O=c1c2ccccc2n(Cc2ccccc2)c(=O)n1O [A-4]
IC50 [1]: 94.1 ± 27 µM
Level of inhibition [1, 5]: Yes
ΔTm (nsp14–nsp10; 3.1 µM compound): -0.06 °C
ΔTm (nsp14–nsp10; 6.3 µM compound): 0.11 °C
ΔTm (nsp14–nsp10; 12.5 µM compound): 0.27 °C
ΔTm (nsp14–nsp10; 25 µM compound): -1.33 °C
ΔTm (nsp14–nsp10; 50 µM compound): 0.35 °C
ΔTm (nsp14–nsp10; 100 µM compound): 0.62 °C

O=c1c2ccccc2[nH]c(=S)n1O [A-5, 3-Hydroxy-2-thioxo-2,3-dihydroquinazolin-4-one]
IC50 value [1]: incomplete inhibition
ΔTm (nsp14–nsp10; 3.1 µM compound): 0.00 °C
ΔTm (nsp14–nsp10; 6.3 µM compound): 0.24 °C
ΔTm (nsp14–nsp10; 12.5 µM compound): 0.19 °C
ΔTm (nsp14–nsp10; 25 µM compound): 0.00 °C
ΔTm (nsp14–nsp10; 50 µM compound): 0.38 °C
ΔTm (nsp14–nsp10; 100 µM compound): 0.61 °C

O=C(O)C1=CC(=C(c2ccc(O)c(C(=O)O)c2)c2ccc(O)c(C(=O)O)c2)C=CC1=O [ATA, Aurintricarboxylic acid, reference compound]
Level of inhibition [1, 5]: Yes
ΔTm (nsp14–nsp10; 3.1 µM compound): 0.33 °C
ΔTm (nsp14–nsp10; 6.3 µM compound): 0.27 °C
ΔTm (nsp14–nsp10; 12.5 µM compound): 0.85 °C
ΔTm (nsp14–nsp10; 25 µM compound): 3.08 °C
effect on thermal stability / aggregation of nsp14–nsp10 (words) (nsp14–nsp10): destabilizing effect on thermal stability of nsp14–nsp10
effect on thermal stability / aggregation of nsp14–nsp10 (words) (nsp14–nsp10; listed as aurintricarboxylic acid): appears to aggregate the protein at high concentration

O=C(O)c1nc(-c2ccccc2)nc(O)c1O [B-1, 5,6-Dihydroxyl-2-phenylpyrimidine-4-carboxylic acid]
IC50 [1]: 32.2 ± 4.5 µM
Level of inhibition [1, 5]: Yes
inhibition of nuclease activity in presence of nsp8 [2]: inhibition was still observed, albeit at higher inhibitor concentrations
ΔTm (nsp14–nsp10; 3.1 µM compound): -0.15 °C
ΔTm (nsp14–nsp10; 6.3 µM compound): 0.02 °C
ΔTm (nsp14–nsp10; 12.5 µM compound): 0.08 °C
ΔTm (nsp14–nsp10; 25 µM compound): -0.57 °C
ΔTm (nsp14–nsp10; 50 µM compound): 0.23 °C
ΔTm (nsp14–nsp10; 100 µM compound): 0.46 °C
MTase inhibition [3]: demonstrated MTase inhibition activity; also recorded: most potent compound

O=C(O)CN(CCOCCOCCN(CC(=O)O)CC(=O)O)CC(=O)O [EGTA, ethylene glycol-bis (b-aminoethyl ether)-N,N,N’,N’-tetraacetic acid, reference compound]
effect on RNase activity of nsp14–nsp10 [4, 6]: inhibitory

Cc1ccc(-n2sc3ccccc3c2=O)cc1 [PBIT, reference compound]
IC50 value [1]: IC50 not reached under assay conditions

CCN(CC)C(=S)SSC(=S)N(CC)CC [disulfiram, reference compound]
ΔTm (nsp14–nsp10; 3.1 µM compound): -0.53 °C
ΔTm (nsp14–nsp10; 6.3 µM compound): -0.58 °C
ΔTm (nsp14–nsp10; 12.5 µM compound): -0.13 °C
ΔTm (nsp14–nsp10; 25 µM compound): -0.42 °C
ΔTm (nsp14–nsp10; 50 µM compound): -0.40 °C
ΔTm (nsp14–nsp10; 100 µM compound): 0.33 °C

O=c1c2ccccc2[se]n1-c1ccccc1 [ebselen, reference compound]
Level of inhibition [1]: Yes
inhibition of nuclease activity in presence of nsp8 [2]: inhibition was still observed, albeit at higher inhibitor concentrations
MTase inhibition [3]: demonstrated MTase inhibition activity
antiviral activity in cell-based assays (SARS-CoV-2): exhibited antiviral activity in cell-based assays

[Mg] [magnesium]
effect on RNase activity of nsp14–nsp10 [4, 6]: promoted the RNase activity

[Mn+2] [manganese]
effect on RNase activity of nsp14–nsp10 [4]: promoted the RNase activity

c1cnc2c(c1)ccc1cccnc12 [o-phenanthroline, reference compound]
effect on RNase activity of nsp14–nsp10 [4, 6]: inhibitory

Cc1nnc(C(=O)NC(C)(C)c2nc(C(=O)NCc3ccc(F)cc3)c(O)c(=O)n2C)o1 [raltegravir, reference compound]
IC50 [1]: 24.4 ± 2.7 µM
antiviral activity in cell-based assays (SARS-CoV-2): did not

CN(C)C(=S)SSC(=S)N(C)C [thiram, reference compound]
IC50 [1]: 48.2 ± 1.8 µM
Level of inhibition [1, 5]: Yes
ΔTm (nsp14–nsp10; 3.1 µM compound): -0.53 °C
ΔTm (nsp14–nsp10; 6.3 µM compound): -0.46 °C
ΔTm (nsp14–nsp10; 12.5 µM compound): -0.22 °C
ΔTm (nsp14–nsp10; 25 µM compound): -0.42 °C
ΔTm (nsp14–nsp10; 50 µM compound): -0.43 °C
ΔTm (nsp14–nsp10; 100 µM compound): -0.21 °C

[Cl-].[Cl-].[Zn+2] [zinc]
effect on RNase activity of nsp14–nsp10 [4]: inhibitory
